Measured values as given in ChEMBL document CHEMBL1148025, “7-Substituted-melatonin and 7-substituted-1-methylmelatonin analogues: effect of substituents on potency and binding affinity” (Bioorg Med Chem, 2007).
Activity calls are given as the source filed them. The calls are words filed in the database; no cut-off is given here.

Tests used:
[1] = biological target: Melatonin receptor type 1A (Homo sapiens, UniProt P48039); test: Displacement of 2[125I]iodomelatonin from human recombinant MT1 receptor expressed in NIH3T3 cells; assay type: cell-based
Sequence of Melatonin receptor type 1A (P48039 whole entry): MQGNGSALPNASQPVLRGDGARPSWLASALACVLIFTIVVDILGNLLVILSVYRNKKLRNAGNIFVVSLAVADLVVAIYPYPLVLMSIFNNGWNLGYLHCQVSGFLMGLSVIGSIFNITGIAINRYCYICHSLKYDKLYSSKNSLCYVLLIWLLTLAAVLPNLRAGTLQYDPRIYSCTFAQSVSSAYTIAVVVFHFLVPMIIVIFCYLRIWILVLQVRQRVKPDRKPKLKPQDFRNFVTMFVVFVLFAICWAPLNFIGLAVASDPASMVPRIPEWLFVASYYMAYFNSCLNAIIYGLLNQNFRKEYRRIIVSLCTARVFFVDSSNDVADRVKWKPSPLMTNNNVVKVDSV

[2] = biological target: T1, Melatonin receptor type 1B (Homo sapiens, UniProt P49286); test: Displacement of 2[125I]iodomelatonin from human recombinant MT2 receptor expressed in NIH3T3 cells; assay type: cell-based
T1 sequence (P49286 whole entry): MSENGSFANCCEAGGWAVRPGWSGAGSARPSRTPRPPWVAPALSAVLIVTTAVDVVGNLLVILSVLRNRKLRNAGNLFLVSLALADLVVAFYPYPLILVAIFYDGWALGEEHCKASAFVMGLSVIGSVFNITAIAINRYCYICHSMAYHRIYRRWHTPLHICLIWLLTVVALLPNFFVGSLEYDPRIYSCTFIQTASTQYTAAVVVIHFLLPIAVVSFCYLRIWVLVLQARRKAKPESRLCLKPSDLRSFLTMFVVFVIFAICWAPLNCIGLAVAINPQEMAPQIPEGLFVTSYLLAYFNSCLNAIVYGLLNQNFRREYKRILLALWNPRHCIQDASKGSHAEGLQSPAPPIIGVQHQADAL

[3] = biological target: T2, Melatonin receptor type 1C (Xenopus laevis, UniProt P49219); test: Effect on pigment aggregation in Xenopus laevis melanophores; assay type: functional
T2 sequence (P49219 whole entry): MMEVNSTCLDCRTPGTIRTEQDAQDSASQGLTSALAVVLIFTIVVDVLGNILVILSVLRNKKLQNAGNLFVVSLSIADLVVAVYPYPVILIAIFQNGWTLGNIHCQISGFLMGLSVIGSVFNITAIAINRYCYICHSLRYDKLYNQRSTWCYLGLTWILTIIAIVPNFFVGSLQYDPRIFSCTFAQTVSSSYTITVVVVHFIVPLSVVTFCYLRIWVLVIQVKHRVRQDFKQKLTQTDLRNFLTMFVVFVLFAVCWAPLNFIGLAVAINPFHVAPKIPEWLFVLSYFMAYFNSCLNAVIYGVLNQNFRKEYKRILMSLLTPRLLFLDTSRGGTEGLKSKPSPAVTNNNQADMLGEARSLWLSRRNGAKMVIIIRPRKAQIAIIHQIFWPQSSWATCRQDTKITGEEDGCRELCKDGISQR

[4] = biological target: T3, Melatonin receptor type 1C (Xenopus laevis) (UniProt P49219); test: Effect on pigment aggregation in Xenopus laevis melanophores at 10 uM; assay type: functional
T3 sequence (whole entry): T2 sequence (P49219 whole entry)

SMILES	Ki [1] [nM]	Ki [2] [nM]	EC50 [3] [nM]	Activity [4]
CCC(=O)NCCc1c[nH]c2c(-c3ccccc3)cc(OC)cc12	617	617	155	
CCC(=O)NCCc1c[nH]c2c(Br)cc(OC)cc12	4.17	0.537	11.5	
CCC(=O)NCCc1cn(C)c2c(-c3ccccc3)cc(OC)cc12	5890	676		inactive
COc1cc(Br)c2c(c1)c(CCNC(C)=O)cn2C	10.5	1.32	24.5	
CCCC(=O)NCCc1c[nH]c2c(C)cc(OC)cc12	2.88	0.676	12.6	
COc1cc(-c2ccccc2)c2[nH]cc(CCNC(C)=O)c2c1	12900	3020	120	
COc1cc(C)c2[nH]cc(CCNC(C)=O)c2c1	2.69	1.74	45.7	
CCCC(=O)NCCc1c[nH]c2c(-c3ccccc3)cc(OC)cc12	955	871	45.7	
COc1cc(Br)c2[nH]cc(CCNC(C)=O)c2c1	3.55	0.676	3.31	
CCCC(=O)NCCc1c[nH]c2c(Br)cc(OC)cc12	5.13	0.355	3.47	
CCCC(=O)NCCc1cn(C)c2c(-c3ccccc3)cc(OC)cc12	5370	851		inactive
COc1ccc2[nH]cc(CCNC(C)=O)c2c1 [MELATONIN]			0.0794	
COc1cc(-c2ccccc2)c2c(c1)c(CCNC(C)=O)cn2C	1260	457	339	

Second part, the compound after the results:

Ki [1] [nM]	Ki [2] [nM]	EC50 [3] [nM]	Activity [4]	SMILES
33.1	2.14	52.5		CCCC(=O)NCCc1cn(C)c2c(Br)cc(OC)cc12
8.71	1.55	9.77		COc1cc(C)c2c(c1)c(CCNC(C)=O)cn2C
1.78	1.1	31.6		CCC(=O)NCCc1c[nH]c2c(C)cc(OC)cc12
14.1	2.29	64.6		CCC(=O)NCCc1cn(C)c2c(Br)cc(OC)cc12
15.8	2.63	15.8		CCC(=O)NCCc1cn(C)c2c(C)cc(OC)cc12
19.5	1.35	16.6		CCCC(=O)NCCc1cn(C)c2c(C)cc(OC)cc12
